Usually IC50 stands for the concentration that gives 50% inhibition. As usually defined, the EC50 is the concentration needed to bring the measured effect to its halfway point. For orientation: inhibition means the change of the read-out against control, counted positive when it falls. High values mean a response far below the control, low ones a response near the control.

Each structure is given as a SMILES string. ≈ marks a conversion by molar mass, not a printed value. Like-named read-outs stand apart in the source and are kept apart here.

The test system of one data set is mouse 3T3 fibroblasts. Kind of data set: Cytotoxicity, MTS viability assay. The format is cell-based. Here is the method: (§1) Candida IC50s were determined by OD600 and fluorescence from vegetative cells and by MTS viability assay in the hyphal state. MICs were determined using a broth microdilution assay under standard CLSI conditions Bacteria strains: E. coli 25922 (EC), S. aureus 27660 (SA), E. faecalis 29212 (EF), P. aeruginosa 10145 (PA), and K. pneumoniae 13883 (KP). Cytotoxicity (EC50) was determined against mouse 3T3 fibroblasts, human transformed liver HepG2 cells, and human oral keratinocyte cell line, OKF6/TERT using an MTS viability assay. Candida IC50s<10 μg/mL, MICs<5 μg/mL and cytotoxicity EC50s>100 μM are indicated in green. MICs>5 μg/mL and cytotoxicity EC50s<100 μM are indicated in red.
(§2) Candida IC50s (CA) were determined by OD600 and fluorescence from vegetative cells. MICs were determined using a broth microdilution assay under standard CLSI conditions Bacteria strains: E. coli 25922 (EC), S. aureus 27660 (SA), E. faecalis 29212 (EF), P. aeruginosa 10145 (PA), and K. pneumoniae 13883 (KP). Cytotoxicity (EC50) was determined against mouse 3T3 fibroblasts and human transformed liver HepG2 cells using an MTS viability assay.
(§3) CLSI conditions Bacteria strains: clinical isolates; yeast strains: C. dubliniensis (NCPF3949), C. glabrata (ATCC 90030), C. krusei (ATCC 6258), C. parapsilosis (ATCC 22019), and C. tropicalis (ATCC 750). Cytotoxicity (EC50) was determined against mouse 3T3 fibroblasts, human transformed liver HepG2 cells, and human oral keratinocyte cell line, OKF6/TERT using an MTS viability assay.
(Tetrazolium dyes change colour on reduction, which living cells bring about.)

Data set [1] concerns human transformed liver HepG2 cells. Kind of data set: Cytotoxicity, MTS viability assay. Format: cell-based. How it is done: as §1, §2, §3
Data set [2] concerns C. albicans GDH2346 hyphal biofilm. Kind of data set: Candida IC50 in the hyphal state / hyphal biofilm, MTS viability assay. The format is cell-based. The following applies: Candida albicans; hyphal state; read-out: IC50 Candida, Hyphal. Here is the method:
Candida IC50s were determined by OD600 and fluorescence from vegetative cells and by MTS viability assay in the hyphal state. MICs were determined using a broth microdilution assay under standard CLSI conditions Bacteria strains: E. coli 25922 (EC), S. aureus 27660 (SA), E. faecalis 29212 (EF), P. aeruginosa 10145 (PA), and K. pneumoniae 13883 (KP). Cytotoxicity (EC50) was determined against mouse 3T3 fibroblasts, human transformed liver HepG2 cells, and human oral keratinocyte cell line, OKF6/TERT using an MTS viability assay. Candida IC50s<10 μg/mL, MICs<5 μg/mL and cytotoxicity EC50s>100 μM are indicated in green. MICs>5 μg/mL and cytotoxicity EC50s<100 μM are indicated in red. To form the biofilm, yeast were grown in RPMI/MOPS, 0.4% sucrose pH7.4 media supplemented with 10% FBS in tissue culture-treated flat bottom 96 well plates for 48 hours. The filamentous yeast cultures were then vigorously washed to remove any non-filamentous, non-attached yeast. The remaining attached filamentous biofilm yeast were incubated in saline containing serially diluted compounds for 24 hours. The cultures were aspirated to remove compound, rinsed and overlayed with RPMI/MOPS, 0.4% sucrose pH7.4 media. Biofilm viability was measured using a cell proliferation assay (CellTiter96 Aqueous Kit from Promega) and IC50s were determined using Prism GraphPad software (nonlinear fit, Table 3).

Data set [3] deals with human oral keratinocyte cell line, OKF6/TERT. Kind of data set: Cytotoxicity, MTS viability assay. The format is cell-based. How it is done: as §1, §3
Another data set deals with C. albicans GDH2346. The data set is described as follows: Candida IC50, vegetative cells, by OD600 and fluorescence. The following applies: for IC50: Candida albicans, GDH2346. Format: cell-based. How it is done: as §1, with “red. Candida IC50s (CA) were determined by OD600 and fluorescence from vegetative cells. MICs were determined using a broth microdilution assay under standard CLSI conditions Bacteria strains: E. coli 25922 (EC), S. aureus 27660 (SA), E. faecalis 29212 (EF), P. aeruginosa 10145 (PA), and K. pneumoniae 13883 (KP). Cytotoxicity (EC50) was determined against mouse 3T3 fibroblasts and human transformed liver HepG2 cells using an MTS viability assay. For determination of anti-Candida IC50s, the method was modified by using RPMI/MOPS buffer pH 6.3 and by addition of FDGlu, a substrate for the yeast enzyme exoglucanase which is secreted during cell growth. This provides a fluorescent readout for cell growth which was used in addition to the traditional optical density measure of growth. OD600 and fluorescence were determined at 24 and 48 hours and the average of all 4 reads was used for the final IC50 determination.” for “red.”

Another data set has as its system E. coli 25922. Kind of data set: Bacterial MIC, broth microdilution, CLSI. Format: cell-based. Here is the method: as §1, with “red. Candida IC50s (CA) were determined by OD600 and fluorescence from vegetative cells. MICs were determined using a broth microdilution assay under standard CLSI conditions Bacteria strains: E. coli 25922 (EC), S. aureus 27660 (SA), E. faecalis 29212 (EF), P. aeruginosa 10145 (PA), and K. pneumoniae 13883 (KP). Cytotoxicity (EC50) was determined against mouse 3T3 fibroblasts and human transformed liver HepG2 cells using an MTS viability assay.” for “red.”
In general terms: In broth dilution the organism is exposed to a series of concentrations in liquid medium.

Another data set concerns K. pneumoniae 13883. The data set is described as follows: Bacterial MIC, broth microdilution, CLSI. The format is cell-based. As to conditions: Klebsiella pneumoniae. How it is done: as §1, with “red. Candida IC50s (CA) were determined by OD600 and fluorescence from vegetative cells. MICs were determined using a broth microdilution assay under standard CLSI conditions Bacteria strains: E. coli 25922 (EC), S. aureus 27660 (SA), E. faecalis 29212 (EF), P. aeruginosa 10145 (PA), and K. pneumoniae 13883 (KP). Cytotoxicity (EC50) was determined against mouse 3T3 fibroblasts and human transformed liver HepG2 cells using an MTS viability assay.” for “red.”

In another data set the test system is E. faecalis 29212. Kind of data set: Bacterial MIC, broth microdilution, CLSI. Format: cell-based. Here is the method: as §1, with “red. Candida IC50s (CA) were determined by OD600 and fluorescence from vegetative cells. MICs were determined using a broth microdilution assay under standard CLSI conditions Bacteria strains: E. coli 25922 (EC), S. aureus 27660 (SA), E. faecalis 29212 (EF), P. aeruginosa 10145 (PA), and K. pneumoniae 13883 (KP). Cytotoxicity (EC50) was determined against mouse 3T3 fibroblasts and human transformed liver HepG2 cells using an MTS viability assay.” for “red.”

Another data set has as its system P. aeruginosa 10145. Kind of data set: Bacterial MIC, broth microdilution, CLSI. The format is cell-based. Here is the method: as §1, with “red. Candida IC50s (CA) were determined by OD600 and fluorescence from vegetative cells. MICs were determined using a broth microdilution assay under standard CLSI conditions Bacteria strains: E. coli 25922 (EC), S. aureus 27660 (SA), E. faecalis 29212 (EF), P. aeruginosa 10145 (PA), and K. pneumoniae 13883 (KP). Cytotoxicity (EC50) was determined against mouse 3T3 fibroblasts and human transformed liver HepG2 cells using an MTS viability assay.” for “red.”

The subject of a further data set is S. aureus 27660. The data set is described as follows: Bacterial MIC, broth microdilution, CLSI. Format: cell-based. How it is done:
as §1, with “red. Candida IC50s (CA) were determined by OD600 and fluorescence from vegetative cells. MICs were determined using a broth microdilution assay under standard CLSI conditions Bacteria strains: E. coli 25922 (EC), S. aureus 27660 (SA), E. faecalis 29212 (EF), P. aeruginosa 10145 (PA), and K. pneumoniae 13883 (KP). Cytotoxicity (EC50) was determined against mouse 3T3 fibroblasts and human transformed liver HepG2 cells using an MTS viability assay.” for “red.”

For the next data set, the system named is A. fumigatus (A1163). Kind of data set: Anti-Aspergillus screen, CLSI M38-A, visual inhibition of growth. Format: cell-based. As to conditions: screening concentration 10 μM, 24-48 hours. Here is the method: (§4) The in vitro efficacy of a library of compounds was assessed for antifungal activity against A. niger (AN1), A. fumigatus ([…]) and A. flavus (NRRL3357) and compared to that of Itraconazole. For a subset of compounds selected based upon efficacy in the screening study a full MIC profile was conducted. Efficacy of test articles was determined in RPMI 1640 broth with MOPS buffered to pH7.2 in accordance with CLSI guidelines M38-A for Antifungal Susceptibility Testing of Filamentous Fungi. The method was modified by using flat well plates to allow microscopic identification of growth. The final screening concentration of each test article was 10 μM. Assay plates were incubated aerobically at 37° C. for 24-48 hours. Following incubation, plates were assessed visually (by eye and microscopically) for inhibition of growth. Inhibition was recorded at 50%, 80% and 100% inhibition compared to the positive control.

The next data set concerns A. flavus (NRRL3357). Described as above. As to conditions: screening concentration 10 μM, 24-48 hours. The format is cell-based. Here is the method:
as §4

The test system of a further data set is A. niger (AN1). Described as above. The format is cell-based. As to conditions: screening concentration 10 μM, 24-48 hours. Here is the method: as §4
A short description of data set [4]: Cytotoxicity, MTS viability assay. As to conditions: Table 6. Format: cell-based, human. How it is done:
as §1, §2, §3

Setting [5] is: human, HepG2 cells (transformed liver), read-out: Cytotoxicity EC50 Human HepG2.
[6] abbreviates: mouse, 3T3 fibroblasts, read-out: Cytotoxicity EC50 Mouse 3T3.
[7] abbreviates: Table 6, read-out: IC50 C. albicans.

On to `NCCCOc1cccc(-n2cc(-c3ccc4ccc(-c5cn(-c6cccc(OCCCN)c6)nn5)cc4c3)nn2)c1` [Compound 138], for which the concentration for half-maximal inhibition (IC50) in the data set with mouse 3T3 fibroblasts (Mus musculus, NIH3T3, cytotoxicity) was 406 µM; in [1] (Homo sapiens, HepG2, cytotoxicity), 502 µM; in [2], 7.5 µg/mL (≈ 13.4 µM); in data set [3] it was 491 µM; in the data set on C. albicans GDH2346 (vegetative cells, read-out: IC50 Candida, Vegetative) it was 4.1 µg/mL (≈ 7.31 µM). Also, the 50% effective concentration (EC50) was greater than 50 µg/mL in the data set with E. coli 25922 (Escherichia coli, E. coli 25922); greater than 50 µg/mL in the data set with K. pneumoniae 13883; greater than 50 µg/mL with E. faecalis 29212 (Enterococcus faecalis, E. faecalis 29212); greater than 50 µg/mL with P. aeruginosa 10145 (Pseudomonas aeruginosa, P. aeruginosa 10145); greater than 50 µg/mL in the data set on S. aureus 27660 (Staphylococcus aureus, S. aureus 27660).
Take `COc1cc(SCCNC(=N)N)c(C(F)(F)F)cc1NC(=O)c1cc(C(=O)Nc2cc(C(F)(F)F)c(SCCNC(=N)N)cc2OC)nc(SCCNC(=N)N)n1` [Cmpd 183]: the inhibition at 10 µM with A. fumigatus (A1163), in the data set with A. flavus (NRRL3357) and in the data set on A. niger (AN1) was 100% each time. Moreover, the EC50 in [4] (setting [5]) is no less than 1000 µM; in data set [4] (setting [6]), 478 µM. In the data set with C. albicans GDH2346 (setting [7]), the concentration for half-maximal inhibition (IC50) stood at 2 µg/mL (≈ 2.31 µM).
With `COc1ccc(CNC(=N)N)cc1NC(=O)c1cc(C(=O)Nc2cc(CNC(=N)N)ccc2OC)c(OCCC(C)C)cc1OCCC(C)C` [Cmpd 184], the inhibition at 10 µM in the data set on A. fumigatus (A1163), with A. flavus (NRRL3357) and with A. niger (AN1) was 100% throughout. The concentration for a half-maximal effect (EC50) is 155 µM in data set [4] (setting [5]) and no less than 1000 µM in data set [4] (setting [6]). In addition, the concentration for half-maximal inhibition (IC50) with C. albicans GDH2346 (setting [7]) stood at 3.1 µg/mL (≈ 4.49 µM).
With `NCCCn1c2cc(-c3ccc(CCN)c(CCN)c3)ccc2c2ccc(-c3ccc(CCN)c(CCN)c3)cc21` [Compound 159], the figures for the EC50 (with mouse 3T3 fibroblasts; in data set [1]) were 61 µM and 64 µM, respectively. Moreover, the “CA (Candida IC50)” value with C. albicans GDH2346 (vegetative cells) was determined as 2.11 µg/mL. The “EC (MIC)” value with E. coli 25922 amounted to 0.78 µg/mL. In the data set with E. faecalis 29212, the “EF (MIC)” value came to 3.13 µg/mL. Further, the “PA (MIC)” value in the data set with P. aeruginosa 10145 was 6.25 µg/mL. Moreover, in the data set with S. aureus 27660, the “SA (MIC)” value was determined as 0.78 µg/mL.
